Assay results from patent US4110438A, “Method of treating depression” (American Home Products Corporation, priority 1977, dated 1978).

Columns and labels:
[1] = test system: patients suffering from depression caused by stress or emotional exhaustion; experiment: clinical investigation of LH-RH in patients suffering from depression; format: in vivo, human
Procedure: Twenty-one patients, suffering from depression caused by stress or emotional exhaustion, were selected for the investigation. Fifteen were female adults, five were male adults and one patient was a young person […]. The latter patient suffered from existential depression and cryptorchidism. Each patient received 300 mcg of LH-RH in a single or divided dose once a month. In this instance the LH-RH was in the form of its hydrochloride acid addition salt and was prepared according to the syntheses reported by Immer et al., noted above. […] Relief from depression usually was observed within 12 hours and in almost all cases within 24 hours. The patients became more cheerful and aware of feeling much better. […] This latter patient sufferred from depression and sexual frigidity; however, in this instance there was no anhedonia regression and some erotic pulsations did occur. […] The greatest hormonal responses coincided with the most evident clinical improvement. In a control study, five patients with established depression were treated with an injection of only the vehicle for the above noted LH-RH dosage.

[2] = test system: patients with endogenous depression; conditions: given in randomized order on days 1, 3 and 5; Lancet 1974; cited from earlier work

Row | Structure (SMILES) | sleep, appetite and disposition for work ([1]; 21 patients, 300 mcg once a month) | time to relief from depression (almost all cases) ([1]; 21 patients, 300 mcg once a month, in almost all cases) [h] | libido response ([1]; 21 patients, 300 mcg once a month, most noticeable in female patients) | time to relief from depression (usually) ([1]; 21 patients, 300 mcg once a month, usually observed) [h] | onset of response after administration ([1]; 21 patients, 300 mcg single or divided dose once a month, hydrochloride salt) | time until symptoms of depression disappear ([1]; 100-800 mcg LH-RH or acid addition salt, moderately to severely depressed patient, usually) [h] | results in stress induced (reactive) depression ([1]; dosages 100-800 mcg, patients suffering from stress induced depression) | hormonal responses: serum levels of luteinizing hormone, follicular stimulating hormone, prolactin and thyrotrophin releasing hormone ([1]; monitored during treatment, greatest responses coincided with most evident clinical improvement) | patients not responding ([1]; of 21 patients, 300 mcg once a month) | gonadotropin response in younger patients (growth of penis, development of scrota) ([1]; younger patients, measured at 30 and 60 days after beginning of treatment) | clinical importance in the treatment of endogenous depression [2]
1 | CC(C)C[C@H](NC(=O)CNC(=O)[C@H](Cc1ccc(O)cc1)NC(=O)[C@H](CO)NC(=O)[C@H](Cc1c[nH]c2ccccc12)NC(=O)[C@H](Cc1c[nH]cn1)NC(=O)[C@@H]1CCC(=O)N1)C(=O)N[C@@H](CCCNC(=N)N)C(=O)N1CCC[C@H]1C(=O)NCC(N)=O [LH-RH, (pyro)-Glu-His-Trp-Ser-Tyr-Gly-Leu-Arg-Pro-Gly-NH2] | Sleep and appetite were regularized as well as disposition for work | ≤ 24 | An improvement in libido response occurred frequently | ≤ 12 | response was immediate | ≤ 24 | Especially effective and favorable results | increases in the serum levels | Only one patient did not respond | there was a gonadotropin response | of no clinical importance
2 | NC(=O)[C@@H]1CCCN1C(=O)[C@H](Cc1cnc[nH]1)NC(=O)[C@@H]1CCC(=O)N1 [thyrotropin releasing hormone] |  |  |  |  |  |  |  |  |  |  | of no clinical importance
